The values that follow come from ChEMBL document CHEMBL5726672, “Morpholin-pyridine derivatives” (2017).

The experiment deals with Trace amine-associated receptor 1 (Mus musculus, UniProt Q923Y8). As to the kind of experiment: Radioligand Binding Assay : HEK-293 cells stably expressing mouse TAAR1 were maintained at 37° C. and 5% CO2 in DMEM high glucose medium, containing fetal calf serum (10%, heat inactivated for 30 min at 56° C.), penicillin/streptomycin (1%), and 375 μg/ml geneticin (Gibco). Cells were released from culture flasks using trypsin/EDTA, harvested, washed twice with ice-cold PBS (without Ca2+ and Mg2+), pelleted at 1,000 rpm for 5 min at 4° C., frozen and stored at −80° C. Frozen pellets were suspended in 20 ml HEPES-NaOH (20 mM, pH 7.4) containing 10 mM EDTA and homogenized with a Polytron (PT 6000, Kinematica) at 14′000 rpm for 20 s. The homogenate was centrifuged at 48,000×g for 30 min at 4° C. Subsequently, the supernatant was removed and discarded, and the pellet resuspended in 20 ml HEPES-NaOH (20 mM, pH 7.4) containing 0.1 mM EDTA using the Polytron (20 s at 14′000 rpm). This procedure was repeated and the final pellet resuspended in HEPES-NaOH containing 0.1 mM EDTA and homogenized using the Polytron. Typically, aliquots of 2 ml membrane portions were stored at −80° C. With each new membrane batch the dissociation constant (Kd) was determined via a saturation curve.

Each structure is given as a SMILES string.

Trace amine-associated receptor 1, sequence (Q923Y8 whole entry): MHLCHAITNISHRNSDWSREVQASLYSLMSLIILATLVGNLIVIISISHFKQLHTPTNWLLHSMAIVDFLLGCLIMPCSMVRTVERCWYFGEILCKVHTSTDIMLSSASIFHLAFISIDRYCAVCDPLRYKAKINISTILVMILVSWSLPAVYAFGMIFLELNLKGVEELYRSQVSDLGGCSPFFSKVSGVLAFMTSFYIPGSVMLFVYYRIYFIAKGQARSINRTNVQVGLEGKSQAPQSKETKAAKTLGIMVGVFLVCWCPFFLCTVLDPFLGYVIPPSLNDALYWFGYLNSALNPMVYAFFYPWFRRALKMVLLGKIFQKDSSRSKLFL

For `CCCc1n[nH]c(C(=O)Nc2ccc(C3CNCCO3)nc2)c1Cl` (racemic), the Ki came to 5.6 nM.
